These results are taken from US20180318291A1, “USE OF AMINOTHIAZOLE MYD88 SPECIFIC INHIBITOR TJM2010-5” (WUHAN INNAMUNE PHARMACEUTICAL INC. LTD., priority 2015, published 2018).

One assay concerns NOD mice. Kind of assay: diabetes mellitus type I model in NOD mice. The format is in vivo. Particulars: 150 mg/kg/d intraperitoneal, observed 30 weeks, FIG. 4. How it is done: 1. Experimental groups: MyD88KO NOD mice, MyD88KO/+NOD mice, NOD mice TJM2010-5 treatment group.
2. Treatment group: Provide intraperitoneal injection of TJM2010-5 dissolved in 0.5% CMC of 150 mg/kg/d on the day before antigen injection, and on day 0 to day 3, and day 5, 7, 9, 11, 13 and 15 day after injection.
3. Provide intraperitoneal injection of mycobacterium antigen to mice in each group and monitor the concentration constantly.
4. Feed in clean level and observe for 30 weeks, and take the tail venous blood to test the non-fasting blood-glucose. The standard for diabetes modeling is obtaining the blood-glucose no less than 22 mmol/L for 2 times successively.

The test system of assay [1] is skin of Balb/c mice transplanted to C57bl/6 mice. Kind of assay: mice skin transplantation model (graft survival, tolerance). In kind it is in vivo. Particulars: Balb/c skin to C57bl/6; TJM2010-5 150 mg/kg/d ip, MR1 200 μg/d ip. An excerpt: 2) Application of TJM2010-5 combined with costimulatory molecules inhibitor-anti-CD154 monoclonal antibody (MR1) in mice skin transplantation model
Five groups are set in the experiment, which are: allogeneic skin grafting control group (the rejection time reported in literature is 8-10 days), TJM2010-5 group, MR1 group and combination treatment group (TJM2010-5+MR1).
The specific handling methods as follows:
Allogeneic skin grafting CMC control group: take and transplant the skin of Balb/c mice to the back of C57bl/6 mice, and provide intraperitoneal injection of 0.5% CMC on day 0 to day 3, and day 5, 7, 9, 11, 13, 15 after the operation, the does is 200 μl/day; in the homogenic skin transplantation group: take and transplant the […] of C57bl/6 mice to the back of C57bl/6 mice, and no special treatment is provided after operation.
The TJM2010-5 Group: take and transplant the skin of Balb/c mice to the back of C57bl/6 mice, and provide intraperitoneal injection of the TJM2010-5 dissolved in 0.5% CMC on day 0 to day 3, and day 5, 7, 9, 11, 13, 15 after the operation, the does is 150 mg/kg/d;
The MR1 Group: take and transplant the skin of Balb/c mice to the back of C57bl/6 mice, and provide intraperitoneal injection of MR 1 on day 0, 1, 3, 7, 14 after the operation, the does is of 200 μg/d; […]

A further assay has as its system mice with endoxemia. Kind of assay: endoxemia lethal experiment (LPS). Conditions: 250 mg/kg intragastric once a day for three days, then LPS ip; FIG. 15(a). In kind it is in vivo. Here is the method: Part one: Observe the effect of MyD88 inhibitor on mortality of mice with endoxemia. The mice will be divided into 2 groups randomly:
Vehicle control group and experiment group (TJM2010-5 treatment group), and 20 mice in each group. Where, the TJM2010-5 treatment group is provided with the intragastric administration of TJM2010-5 (0.5% CMC solvent, 25 mg/ml) at the dose of 250 mg/kg (200 μL per mouse); the vehicle control group is provided with the intragastric administration of 0.5% CMC, 200 μL per mouse. Apply the intragastric administration once a day, and for three days successively. And on day 3, after the […], provide the intraperitoneal injection of LPS 1 hour later, then, observe the survival condition every twelve hours, and for three days.

For assay [2], the system named is C57bl/6 mice lymphocytes with Bal b/c DC. Kind of assay: mixed lymphocyte culture, T cell proliferation after CpG stimulated DC activation. Conditions: 10, 20, 40 μM, third day, FIG. 8. The format is cell-based. How it is done: 1. Take the thigh bone of Bal b/c mice, separate the bone marrow cell and add the GMS-CSF and IL-4 cytokines to cultivate marrow-derived DC.
2. Cultivate them until the sixth day, and dissociate the cells to remove immature DC. Conduct centrifugation and suspend them with 1640 medium.
3. Add mitomycin (to let the final concentration up to 50 μg/ml), and conduct water bath at 37° C. for 15 min Wash in 1640 medium and count.
4. Take the spleen of C57bl/6 mice, separate splenic lymphocytes with separating medium of mice lymphocytes and count.
5. Take the splenic lymphocytes of C57bl/6 mice and label CFSE.
6. Mix DC derived from Bal b/c and C57bl/6 mice lymphocytes for the mixed lymphocyte culture. And the grouped as follows:
Control group: Add CPG other than TJM2010-5 in the process of mixed lymphocyte culture.
Experiment group 1: Add CPG and TJM2010-5 in the process of mixed lymphocyte culture, where, the added TJM2010-5 is 10 μM.
Experiment group 2: Add CPG and TJM2010-5 in the process of mixed lymphocyte culture, where, the added TJM2010-5 is 20 μM.
Experiment group 3: Add CPG and TJM2010-5 in the process of mixed lymphocyte culture, where, the added TJM2010-5 is 40 μM.
1. Cultivate them until the third day, collect cells and detect the proliferation of C57bl/6 mice lymphopoiesis with flow cytometer.

Assay [3] concerns inflammatory factors (IL-1β, TNF-α, IL-6) in graft. Kind of assay: real time quantitative PCR of inflammatory factors in graft. In kind it is in vivo, mice. The text has this:
1. Extract the total RNA from the receptor receiving antigen (homogenic, allogenic) stimulation by the TRIzol method;
2. Reversely transcribe them to cDNA by the two-step method of RT-PCR;
3. Make the standard curve to compare the measured relative level of IL-1β, TNF-α, IL-6.

The subject of assay [4] is lymphocyte subpopulation in receptor spleen. Kind of assay: lymphocyte subpopulation in receptor spleen by flow cytometry. Conditions: FIG. 5. In kind it is in vivo, mice. An excerpt: In vitro experiment: conduct analysis on lymphocyte subpopulation in receptor spleen receiving stimulation of antigen (homogenic, allogeneic), and flow cytometer detection on CD4+CD25+Foxp3+T cell ratio in receptor receiving TJM2010-5 treatment.
1. Take the receptor spleen of different groups (homogenic, allogenic antigenic stimulation), and grind them to separate lymphocyte;
2. Add the IFN-γ labeled by flow antibody APC and IL-17 labeled by APC, CD25 labeled by APC and Foxp3 labeled by PE.
3. Analyze the lymphocyte subpopulation in receptor spleen of various groups, and the CD4+CD25+Foxp3+T cell ratio in receptor receiving TJM2010-5 treatment with flow cytometry.
A general note: Flow cytometry measures light scatter and fluorescence of single cells or particles in a stream.

Regarding `O=C(CCN1CCN(Cc2ccccc2)CC1)Nc1nc(-c2ccccc2)cs1` [TJM2010-5, 3-(4-benzylpiperazin-1-yl)-N-(4-phenylthiazol-2-yl) propanamide], the “incidence rate of diabetes mellitus type I” value with NOD mice was “equivalent to that of MyD88KO homozygote group”. Besides, in assay [1], the “effect on tolerance induction of the skin graft” value is recorded as “no obvious effect”. Moreover, in the assay on mice with endoxemia, the “death incurred by endotoxin” value is on record as “effectively delay” and the lethality of endotoxin entry is listed as “reduce”. For the same molecule, the “proliferation in T cells with increasing TJM2010-5” value in assay [2] is reported as “reduces”. Further, in assay [3] (FIG. 9), the “level of inflammatory factors (IL-1β, TNF-α, IL-6) in heart graft vs control group” value is “significantly lower than that of control group”. In addition, the “level of IL-1β in graft vs CMC allogeneic transplantation group” value in assay [3] (FIG. 9a) is “significantly lower than those in CMC allogeneic transplantation group”. In addition, in assay [3] (FIG. 9c), the “level of IL-6 in graft vs CMC allogeneic transplantation group” value was “significantly lower than those in CMC allogeneic transplantation group”. In assay [4] (receptor spleen lymphocytes), the “IFN-γ vs CMC control group” value is “significantly lower than that of CMC control group” and the “IL-17 vs CMC control group” value is reported as “significantly lower than that of CMC control group”. Moreover, in assay [4] (receptor spleen), the “CD4+CD25+Foxp3+T cell ratio in receptor” value is “up-regulated significantly”.
